Reference: US7754896B2, “Indol-alanine derivatives as selective S1P4-agonists” (Novartis AG, priority 2004, dated 2010)

Molecular target: T1, S1P4 (Homo sapiens, UniProt O95977)
T1 construct: expressed in transfected cells
T1 sequence (O95977 1-384): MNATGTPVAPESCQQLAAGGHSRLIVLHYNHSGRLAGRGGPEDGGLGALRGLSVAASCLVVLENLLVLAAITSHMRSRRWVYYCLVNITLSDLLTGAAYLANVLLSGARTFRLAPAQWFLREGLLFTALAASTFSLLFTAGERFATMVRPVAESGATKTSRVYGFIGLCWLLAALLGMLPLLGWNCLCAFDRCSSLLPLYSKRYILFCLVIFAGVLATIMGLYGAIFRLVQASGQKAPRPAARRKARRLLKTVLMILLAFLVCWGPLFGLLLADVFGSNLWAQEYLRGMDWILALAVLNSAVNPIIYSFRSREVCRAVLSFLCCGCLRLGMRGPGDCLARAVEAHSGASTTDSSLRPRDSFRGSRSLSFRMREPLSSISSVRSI
Assay: GTPγS binding assay, S1P4
Format: biochemical
Settings: CHO cells expressing S1P4
Protocol: An expression vector for the human S1P4 gene (HSEDG4; GenBank Accession Number AJ000479) fused to the c-myc peptide tag at the C-terminus is obtained as described in Van Brocklyn et al. 2000, Blood 95(8), 2624. The encoding DNA for the S1P4-myc fusion protein is cloned in the mammalian expression vector pRc/CMV (Invitrogen), which confers G418 resistance for the selection of stable mammalian cells. The DNA sequence of the S1P4 insert is determined on both strands. […] The S1P4-myc cDNA is inserted into the pRc/CMV vector using HindIII/XbaI.
To develop stable cell lines expressing the c-myc tagged S1P4 receptor 5 μg of plasmid pRc/CMV myc-S1P4 is cut using restriction endonuclease PvuI, which cleaves the plasmid once. The linearized plasmid is then precipitated using a final concentration of 0.3M sodium acetate, pH5.0 and 66% ethanol. After centrifugation and washing, the DNA pellet is dissolved in 30 μl water. […] Individual clones that grew after the sort and selection procedure are expanded and one clone is finally selected based on the level of S1P4 mRNA expression determined by TaqMan quantitative PCR analysis.
Membrane proteins are prepared from wild type CHO-K1 and the CHO cell clones expressing human S1P4. […] The protein concentration is determined using the Bio Rad Protein Assay and human IgG as standard. […]

Q: How did the EC50 turn out when `NC(CNC(=O)c1cc2c(-c3ccccc3Cc3ccccc3)cccc2[nH]1)C(=O)O` (stereo not shown) [Example 2] was run?
A: 250 nM
